Measurements published in PubChem BioAssay AID248 (DTP/NCI, 2004).
Values joined by “and” are separate entries in the source; they are usually repeats but may differ in a detail not shown here. Identical values can stand only once. Inconclusive results and toxic doses are left out. No stated cut-off is given here; in the data, active means T/C of 150% or more; inactive means T/C below 125%.

Test system: L1210 leukemia ip in BDF1 mice, survival T/C
Test: NCI In Vivo Anticancer Drug Screen. Data for tumor model L1210 Leukemia (intraperitoneal) in B6D2F1 (BDF1) mice
Conditions: endpoint: mean survival time, higher = longer survival
In short: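 Tumor was transplanted into mice, which were then dosed with test compound or vehicle alone. Survival was recorded for each group, and the treated figure was expressed relative to the control figure.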

[1] = dose: 100.0 mg/kg/injection, schedule: Q01DX009 (ip), vehicle: gum acacia
[2] = dose: 200.0 mg/kg/injection, schedule: Q01DX009 (ip), vehicle: gum acacia
[3] = dose: 400.0 mg/kg/injection, schedule: Q01DX009 (ip), vehicle: gum acacia
[4] = dose: 100.0 mg/kg/injection, schedule: Q01DX001 (ip), vehicle: saline with Tween-80
[5] = dose: 200.0 mg/kg/injection, schedule: Q01DX001 (ip), vehicle: saline with Tween-80
[6] = dose: 400.0 mg/kg/injection, schedule: Q01DX001 (ip), vehicle: saline with Tween-80
[7] = dose: 100.0 mg/kg/injection, schedule: Q01DX009 (ip), vehicle: saline
[8] = dose: 400.0 mg/kg/injection, schedule: Q01DX009 (ip), vehicle: saline
[9] = dose: 100.0 mg/kg/injection, schedule: Q04DX003 (ip), vehicle: saline with Tween-80
[10] = dose: 200.0 mg/kg/injection, schedule: Q04DX003 (ip), vehicle: saline with Tween-80
[11] = dose: 400.0 mg/kg/injection, schedule: Q04DX003 (ip), vehicle: saline with Tween-80
[12] = dose: 100.0 mg/kg/injection, schedule: Q01DX001 (ip), vehicle: Klucel (hydroxypropylcellulose) (HPC)
[13] = dose: 200.0 mg/kg/injection, schedule: Q01DX001 (ip), vehicle: Klucel (hydroxypropylcellulose) (HPC)
[14] = dose: 100.0 mg/kg/injection, schedule: Q01DX001 (ip), vehicle: saline
[15] = dose: 200.0 mg/kg/injection, schedule: Q01DX001 (ip), vehicle: saline
[16] = dose: 400.0 mg/kg/injection, schedule: Q01DX001 (ip), vehicle: saline
[17] = dose: 100.0 mg/kg/injection, schedule: Q04DX003 (ip), vehicle: Klucel (hydroxypropylcellulose) (HPC)
[18] = dose: 200.0 mg/kg/injection, schedule: Q04DX003 (ip), vehicle: Klucel (hydroxypropylcellulose) (HPC)
[19] = dose: 400.0 mg/kg/injection, schedule: Q04DX003 (ip), vehicle: Klucel (hydroxypropylcellulose) (HPC)

Measured: T/C

O=[N+]([O-])c1ccc(Oc2ccccc2)c(Cl)c1
inactive: dose: 75.0 mg/kg/injection, schedule: Q01DX009 (ip), vehicle: Klucel (hydroxypropylcellulose) (HPC) 101 % of control | dose: 75.0 mg/kg/injection, schedule: Q04DX003 (ip), vehicle: Klucel (hydroxypropylcellulose) (HPC) 96 % of control | dose: 150.0 mg/kg/injection, schedule: Q01DX009 (ip), vehicle: Klucel (hydroxypropylcellulose) (HPC) 108 % of control | dose: 150.0 mg/kg/injection, schedule: Q04DX003 (ip), vehicle: Klucel (hydroxypropylcellulose) (HPC) 110 % of control | dose: 300.0 mg/kg/injection, schedule: Q01DX009 (ip), vehicle: Klucel (hydroxypropylcellulose) (HPC) 108 % of control | dose: 300.0 mg/kg/injection, schedule: Q04DX003 (ip), vehicle: Klucel (hydroxypropylcellulose) (HPC) 93 % of control

C/C=C/CC1(CC(C)C)C(=O)NC(=S)NC1=O
inactive: dose: 75.0 mg/kg/injection, schedule: Q01DX001 (ip), vehicle: saline 102 % of control | dose: 150.0 mg/kg/injection, schedule: Q01DX001 (ip), vehicle: saline 94 % of control | dose: 300.0 mg/kg/injection, schedule: Q01DX001 (ip), vehicle: saline 99 % of control

CC(C)NC(=O)N(c1ccccc1)c1ccccc1
inactive: [1] 104 % of control | dose: 100.0 mg/kg/injection, schedule: Q04DX003 (ip), vehicle: gum acacia 97 % of control | [2] 111 % of control | dose: 200.0 mg/kg/injection, schedule: Q04DX003 (ip), vehicle: gum acacia 100 % of control | [3] 101 % of control | dose: 400.0 mg/kg/injection, schedule: Q04DX003 (ip), vehicle: gum acacia 99 % of control

Cc1ccc(NC(=O)Nc2cccc(C(F)(F)F)c2)cc1Cl
inactive: [1] 92 % of control | [2] 89 % of control | [3] 91 % of control

CN(C)C(=O)c1cccc(COc2ccc(N)cc2Cl)c1
inactive: dose: 100.0 mg/kg/injection, schedule: Q04DX003 (ip), vehicle: saline 96 % of control | dose: 200.0 mg/kg/injection, schedule: Q04DX003 (ip), vehicle: saline 106 % of control

c1ccc(-c2cnnn2-c2ccccc2)cc1
inactive: [4] 105 % of control | [5] 100 % of control | [6] 105 % of control

CC(=Nc1cccc(C)c1C)c1c(O)cc(C)oc1=O
inactive: [7] 108 % of control | dose: 200.0 mg/kg/injection, schedule: Q01DX009 (ip), vehicle: saline 97 % of control | [8] 103 % of control

CCCCCC/C=C/C(=O)OCC
inactive: [9] 96 % of control | [10] 101 % of control | [11] 101 % of control

CC1CCC2(C)CCC(C(C)C)C2(O)CC1 (configuration not stated)
inactive: dose: 50.0 mg/kg/injection, schedule: Q01DX009 (ip), vehicle: saline sonified 90 % of control | dose: 100.0 mg/kg/injection, schedule: Q01DX009 (ip), vehicle: saline sonified 97 % of control | dose: 100.0 mg/kg/injection, schedule: Q04DX003 (ip), vehicle: saline sonified 107 % of control | dose: 200.0 mg/kg/injection, schedule: Q01DX009 (ip), vehicle: saline sonified 92 % of control | dose: 200.0 mg/kg/injection, schedule: Q04DX003 (ip), vehicle: saline sonified 100 % of control

CC(C)(C)C1=CC(=O)C(N2C3C4CCC(C4)C32)=C(N2C3C4CCC(C4)C32)C1=O (configuration not stated)
inactive: [12] 96 % of control | [13] 94 % of control | dose: 400.0 mg/kg/injection, schedule: Q01DX001 (ip), vehicle: Klucel (hydroxypropylcellulose) (HPC) 87 % of control

CN(C)CCSS(=O)(=O)O
inactive: [14] 93 % of control | [15] 96 % of control | [16] 102 % of control

CC(CC#N)c1ccc[nH]1 (configuration not stated)
inactive: dose: 5.0 mg/kg/injection, schedule: Q01DX001 (ip), vehicle: carboxymethylcellulose (CMC) 115 % of control | dose: 10.0 mg/kg/injection, schedule: Q01DX001 (ip), vehicle: carboxymethylcellulose (CMC) 111 % of control | dose: 20.0 mg/kg/injection, schedule: Q01DX001 (ip), vehicle: carboxymethylcellulose (CMC) 117 % of control | dose: 40.0 mg/kg/injection, schedule: Q01DX001 (ip), vehicle: carboxymethylcellulose (CMC) 113 % of control | dose: 50.0 mg/kg/injection, schedule: Q01DX001 (ip), vehicle: carboxymethylcellulose (CMC) 109 % of control | dose: 80.0 mg/kg/injection, schedule: Q01DX001 (ip), vehicle: carboxymethylcellulose (CMC) 96 % of control | dose: 100.0 mg/kg/injection, schedule: Q01DX001 (ip), vehicle: carboxymethylcellulose (CMC) 102 % of control | dose: 200.0 mg/kg/injection, schedule: Q01DX001 (ip), vehicle: carboxymethylcellulose (CMC) 107 % of control

CCNC(=O)CCCC(=O)OC
inactive: [14] 94 % of control | [15] 103 % of control | [16] 97 % of control

C#C/C=C/CC1OC(C(Br)CC)CC2OC1CC2Br (configuration not stated)
inactive: dose: 75.0 mg/kg/injection, schedule: Q01DX001 (ip), vehicle: carboxymethylcellulose (CMC) 94 % of control | dose: 150.0 mg/kg/injection, schedule: Q01DX001 (ip), vehicle: carboxymethylcellulose (CMC) 96 % of control | dose: 300.0 mg/kg/injection, schedule: Q01DX001 (ip), vehicle: carboxymethylcellulose (CMC) 96 % of control

O=c1[nH][nH]c(=O)n1O
inactive: [4] 102 % of control | dose: 100.0 mg/kg/injection, schedule: Q01DX009 (ip), vehicle: acetone 105 % of control | dose: 100.0 mg/kg/injection, schedule: Q01DX009 (ip), vehicle: saline with Tween-80 91 % of control | [7] 94 % of control and 92 % of control | [9] 101 % of control and 109 % of control | dose: 130.0 mg/kg/injection, schedule: Q01DX009 (ip), vehicle: saline 89 % of control | [5] 106 % of control | dose: 200.0 mg/kg/injection, schedule: Q01DX009 (ip), vehicle: saline with Tween-80 88 % of control | [10] 102 % of control and 105 % of control | dose: 300.0 mg/kg/injection, schedule: Q01DX009 (ip), vehicle: saline 98 % of control and 89 % of control | [6] 104 % of control | dose: 400.0 mg/kg/injection, schedule: Q01DX009 (ip), vehicle: acetone 88 % of control | [8] 88 % of control | [11] 98 % of control and 89 % of control

NC(=Nc1ccc(N=C(N)N[N+](=O)[O-])cc1)N[N+](=O)[O-]
inactive: dose: 25.0 mg/kg/injection, schedule: Q04DX002 (ip), vehicle: Klucel (hydroxypropylcellulose) (HPC) 107 % of control | dose: 50.0 mg/kg/injection, schedule: Q04DX002 (ip), vehicle: Klucel (hydroxypropylcellulose) (HPC) 96 % of control | dose: 100.0 mg/kg/injection, schedule: Q04DX002 (ip), vehicle: Klucel (hydroxypropylcellulose) (HPC) 96 % of control

CCC(C)C(C#N)(CCN(CC=C(C)C)CC=C(C)C)c1cccc2ccccc12 (configuration not stated)
inactive: [17] 96 % of control | [18] 110 % of control | [19] 93 % of control

Cc1cc(C)c([N+](=O)[O-])cc1N
inactive: dose: 50.0 mg/kg/injection, schedule: Q01DX001 (ip), vehicle: Klucel (hydroxypropylcellulose) (HPC) 101 % of control | [12] 98 % of control | [13] 93 % of control

CS(=O)(=O)OCCN(CCOS(C)(=O)=O)c1ccc(C=Nc2cccc(C(=O)O)c2)cc1
inactive: dose: 2.5 mg/kg/injection, schedule: Q04DX003 (ip), vehicle: Klucel (hydroxypropylcellulose) (HPC) 111 % of control | dose: 5.0 mg/kg/injection, schedule: Q04DX003 (ip), vehicle: Klucel (hydroxypropylcellulose) (HPC) 120 % of control | dose: 80.0 mg/kg/injection, schedule: Q04DX003 (ip), vehicle: Klucel (hydroxypropylcellulose) (HPC) 91 % of control

O=C(O)CC1(C(=O)O)CC2(Cl)C(Cl)=C(Cl)C1(Cl)C2(Cl)Cl (configuration not stated)
inactive: [9] 107 % of control | [10] 112 % of control

O=C(O)CC(SC(c1ccccc1)(c1ccccc1)c1ccccc1)C(=O)O (configuration not stated)
inactive: dose: 100.0 mg/kg/injection, schedule: Q01DX009 (ip), vehicle: Klucel (hydroxypropylcellulose) (HPC) 93 % of control | [17] 98 % of control | dose: 200.0 mg/kg/injection, schedule: Q01DX009 (ip), vehicle: Klucel (hydroxypropylcellulose) (HPC) 90 % of control | [18] 102 % of control | [19] 96 % of control
